The values that follow are results of earlier work, collected in US20210137903A1, “ANTI-ANDROGENS FOR THE TREATMENT OF PROSTRATE CANCER” (priority 2019, published 2021).

Each structure is given as a SMILES string.

One data set addresses AR (Homo sapiens, UniProt P10275). To be noted: cited from earlier work.
In a further data set the target is T1, T877A AR mutant (Homo sapiens, UniProt P10275, T878A).
T1 sequence (P10275 1-920 T878A): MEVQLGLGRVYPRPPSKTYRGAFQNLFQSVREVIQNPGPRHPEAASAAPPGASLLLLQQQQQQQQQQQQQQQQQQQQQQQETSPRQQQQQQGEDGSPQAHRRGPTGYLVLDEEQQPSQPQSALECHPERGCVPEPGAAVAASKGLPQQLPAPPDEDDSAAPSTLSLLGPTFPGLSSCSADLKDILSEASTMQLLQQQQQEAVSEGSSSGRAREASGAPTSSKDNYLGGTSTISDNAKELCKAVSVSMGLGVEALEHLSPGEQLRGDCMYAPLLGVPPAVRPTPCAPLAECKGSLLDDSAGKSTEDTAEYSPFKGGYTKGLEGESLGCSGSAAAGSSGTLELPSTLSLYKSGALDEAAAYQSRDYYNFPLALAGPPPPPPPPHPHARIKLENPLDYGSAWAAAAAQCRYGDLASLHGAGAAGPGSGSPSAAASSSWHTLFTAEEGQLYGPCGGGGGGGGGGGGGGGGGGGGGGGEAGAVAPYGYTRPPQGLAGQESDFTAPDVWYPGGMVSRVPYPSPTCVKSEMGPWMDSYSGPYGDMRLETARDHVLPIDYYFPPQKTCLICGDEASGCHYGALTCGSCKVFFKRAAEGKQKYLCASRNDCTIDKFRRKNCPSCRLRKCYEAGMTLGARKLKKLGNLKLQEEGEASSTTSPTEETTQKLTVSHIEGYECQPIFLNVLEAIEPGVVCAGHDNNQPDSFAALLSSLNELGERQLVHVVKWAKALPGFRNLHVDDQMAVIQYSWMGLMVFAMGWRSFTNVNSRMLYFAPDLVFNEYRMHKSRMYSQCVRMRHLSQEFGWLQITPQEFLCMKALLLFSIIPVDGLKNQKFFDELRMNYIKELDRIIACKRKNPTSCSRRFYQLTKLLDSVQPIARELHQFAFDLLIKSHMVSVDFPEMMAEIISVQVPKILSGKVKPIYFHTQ
As to conditions: cited from earlier work.

Chain of AR (P10275 whole entry): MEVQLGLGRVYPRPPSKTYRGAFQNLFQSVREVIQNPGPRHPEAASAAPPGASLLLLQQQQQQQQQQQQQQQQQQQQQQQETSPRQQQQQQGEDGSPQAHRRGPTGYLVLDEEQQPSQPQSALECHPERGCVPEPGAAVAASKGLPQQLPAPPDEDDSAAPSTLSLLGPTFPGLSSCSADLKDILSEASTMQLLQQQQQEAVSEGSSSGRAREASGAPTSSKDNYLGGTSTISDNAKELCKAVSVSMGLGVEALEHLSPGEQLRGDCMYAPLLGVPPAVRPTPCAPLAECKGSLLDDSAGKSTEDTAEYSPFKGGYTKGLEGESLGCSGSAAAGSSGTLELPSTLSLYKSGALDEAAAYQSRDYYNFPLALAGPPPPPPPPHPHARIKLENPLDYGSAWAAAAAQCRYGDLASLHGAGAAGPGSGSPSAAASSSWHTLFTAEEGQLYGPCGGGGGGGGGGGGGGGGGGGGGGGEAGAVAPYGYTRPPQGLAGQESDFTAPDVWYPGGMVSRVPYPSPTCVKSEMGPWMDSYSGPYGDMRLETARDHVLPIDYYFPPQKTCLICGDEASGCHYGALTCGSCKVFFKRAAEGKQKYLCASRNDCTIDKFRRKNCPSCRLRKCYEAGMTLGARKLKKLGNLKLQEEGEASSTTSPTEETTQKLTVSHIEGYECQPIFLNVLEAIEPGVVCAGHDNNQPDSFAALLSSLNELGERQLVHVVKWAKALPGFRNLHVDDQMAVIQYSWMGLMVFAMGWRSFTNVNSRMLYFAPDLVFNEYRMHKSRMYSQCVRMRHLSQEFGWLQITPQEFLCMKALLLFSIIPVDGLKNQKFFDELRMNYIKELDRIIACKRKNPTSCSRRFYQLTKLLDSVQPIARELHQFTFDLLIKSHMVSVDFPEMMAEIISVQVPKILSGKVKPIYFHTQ

`CC(O)c1cc(C(=O)N[C@@H](C)Cn2ccc(-c3ccc(C#N)c(Cl)c3)n2)[nH]n1` (some centres unmarked) [Darolutamide]: the “affinity of binding to AR” value on AR is reported as “high affinity”.
`CC(C)(O)C(=O)Nc1ccc([N+](=O)[O-])c(C(F)(F)F)c1` [hydroxyflutamide]: at T877A AR mutant, the AR agonist activity entry was “act as AR agonists”.
